Experimental data from the CheMixHub viscosity set.
“And” between values parts separate entries of the source, which are not always exact repeats. Equal values may be shown once.

Test: xn = mol fraction of the nth substance listed

CCOC=O + CCC(C)O
viscosity [mPa·s], 100 kPa
Settings	x1 = 0.0818	x1 = 0.1617	x1 = 0.2415	x1 = 0.3497	x1 = 0.4398	x1 = 0.5611	x1 = 0.65	x1 = 0.7399	x1 = 0.85	x1 = 0.9396
293.15 K	2.41	1.74	1.35	1.04	0.86	0.69	0.59	0.53	0.48	0.44
298.15 K	2.03	1.51	1.2	0.94	0.78	0.62	0.55	0.5	0.45	0.42
303.15 K	1.74	1.32	1.07	0.84	0.71	0.58	0.51	0.47	0.43	0.4
308.15 K	1.5	1.17	0.96	0.77	0.66	0.55	0.49	0.45	0.41	0.38
313.15 K	1.3	1.02	0.85	0.71	0.61	0.51	0.46	0.42	0.39	0.36
318.15 K	1.13	0.9	0.77	0.65	0.57	0.48	0.43	0.39	0.36	0.34
323.15 K	1	0.82	0.72	0.61	0.55	0.47	0.42	0.38	0.35	0.32

O=P([O-])(O)O.[K+] + O
viscosity [mPa·s], 101 kPa
Settings	x1 = 0.0018	x1 = 0.0054	x1 = 0.0089	x1 = 0.012	x1 = 0.016
298.15 K	0.9211	0.9772	1.037	1.11	1.186
303.15 K	0.8252	0.8757	0.9339	0.9884	1.062
308.15 K	0.7468	0.7881	0.837	0.8844	0.9335

ClCCCl + CCCO
101 kPa
Settings	viscosity [mPa·s]
293.15 K, x2 = 0.9052	1.795
298.15 K, x2 = 0.614	1.035
303.15 K, x2 = 0.1182	0.6969
303.15 K, x2 = 0.2163	0.6888
303.15 K, x2 = 0.5579	0.9007
303.15 K, x2 = 0.6721	1.034
303.15 K, x2 = 0.836	1.328
313.15 K, x2 = 0.1182	0.6089
313.15 K, x2 = 0.2163	0.6167
313.15 K, x2 = 0.326	0.6293
313.15 K, x2 = 0.5579	0.7563
313.15 K, x2 = 0.6721	0.8514
313.15 K, x2 = 0.836	1.071
323.15 K, x2 = 0.1182	0.5483
323.15 K, x2 = 0.2163	0.5488
323.15 K, x2 = 0.326	0.5542
323.15 K, x2 = 0.5579	0.6484
323.15 K, x2 = 0.6721	0.721
323.15 K, x2 = 0.836	0.8872

CCNc1ccccc1 + Brc1ccccc1
viscosity [mPa·s], 101 kPa
Settings	303.15 K	308.15 K
x1 = 0.0714	1.056	0.995
x1 = 0.1264	1.092	1.023
x1 = 0.1965	1.139	1.06
x1 = 0.2605	1.183	1.095
x1 = 0.3365	1.237	1.137
x1 = 0.3956	1.28	1.171
x1 = 0.4958	1.352	1.229
x1 = 0.5606	1.399	1.268
x1 = 0.6429	1.46	1.319
x1 = 0.7152	1.514	1.364
x1 = 0.7825	1.565	1.407
x1 = 0.8628	1.628	1.46
x1 = 0.9205	1.675	1.499

CCNc1ccccc1 + CCCCO
303.15 K, 101 kPa
Settings	viscosity [mPa·s]
x1 = 0.0702	2.203
x1 = 0.1296	2.187
x1 = 0.1901	2.173
x1 = 0.2568	2.154
x1 = 0.3204	2.132
x1 = 0.3725	2.114
x1 = 0.4414	2.085
x1 = 0.5136	2.047
x1 = 0.5841	2.007
x1 = 0.6525	1.97
x1 = 0.7225	1.926
x1 = 0.7954	1.873
x1 = 0.8741	1.819

CCC(C)Br (centres undefined) + CC(C)CO
viscosity [mPa·s], 101.3 kPa
Settings	298.15 K	313.15 K
x1 = 0.0474	2.895	1.857
x1 = 0.102	2.431	1.596
x1 = 0.203	1.813	1.244
x1 = 0.3032	1.407	1.007
x1 = 0.4043	1.126	0.8382
x1 = 0.5066	0.9316	0.7176
x1 = 0.6053	0.7983	0.6315
x1 = 0.7043	0.7016	0.5696
x1 = 0.803	0.6311	0.5215
x1 = 0.8948	0.5854	0.4887
x1 = 0.9318	0.5716	0.4796

[Ce+3].[Cl-].[Cl-].[Cl-] + O
Settings	viscosity
298.15 K, 101.33 kPa, x1 = 0.06822	12.27 mPa·s and 12.27 mPa·s

ClCCl + CCO
303.15 K, 101.3 kPa
Settings	viscosity [mPa·s]
x2 = 0.0625	0.395
x2 = 0.1074	0.398
x2 = 0.1915	0.4103
x2 = 0.2935	0.4387
x2 = 0.4162	0.4914
x2 = 0.5331	0.5595
x2 = 0.6811	0.6721
x2 = 0.7823	0.767
x2 = 0.8482	0.8337
x2 = 0.9067	0.8949
x2 = 0.9571	0.9476

ClCCCl + CCCCCO
303.15 K, 101 kPa
Settings	viscosity [mPa·s]
x1 = 0.1509	2.002
x1 = 0.3002	1.472
x1 = 0.4539	1.111
x1 = 0.6003	0.906
x1 = 0.7472	0.777
x1 = 0.8986	0.706

CCOC=O + O=C1CCCO1
298.15 K, 101.33 kPa
Settings	viscosity [mPa·s]
x1 = 0.0501	1.571
x1 = 0.0994	1.446
x1 = 0.1504	1.333
x1 = 0.2017	1.23
x1 = 0.2492	1.143
x1 = 0.3001	1.057
x1 = 0.4017	0.895
x1 = 0.4509	0.845
x1 = 0.503	0.783
x1 = 0.5488	0.732
x1 = 0.6028	0.677
x1 = 0.7138	0.576
x1 = 0.7502	0.547
x1 = 0.7894	0.51
x1 = 0.8503	0.47
x1 = 0.9	0.439
x1 = 0.9501	0.412

ClCCl + COC(C)=O
298.15 K, 101 kPa
Settings	viscosity [mPa·s]
x1 = 0.1033	0.374
x1 = 0.1903	0.383
x1 = 0.2995	0.391
x1 = 0.4016	0.398
x1 = 0.5007	0.404
x1 = 0.5991	0.41
x1 = 0.7017	0.414
x1 = 0.8034	0.416
x1 = 0.9104	0.418
